Experimental data taken from patent publication US20230203485A1, “METHODS FOR MODULATING MHC-I EXPRESSION AND IMMUNOTHERAPY USES THEREOF” (Dana-Farber Cancer Institute, Inc., priority 2020, published 2023).

Tested on: class I antigen presentation gene expression in MCC cell lines
Assay: RNA-seq / DESeq2 differential expression of MCC cell lines at baseline and after IFN-γ stimulation
Format: cell-based, human
Description: FIG. 2A comprises RNA-seq heatmaps of class I antigen presentation gene expression in MCC lines and controls.
FIG. 2B is a volcano plot of differentially expressed genes (genes below FDR cutoff 0.01 are shown in yellow) between baseline and IFN-γ-treated MCC cell lines. Differential expression analysis was performed using DESeq2, and negative LFC indicates increased expression in +IFN-γ samples. IFN genes are highlighted in red.
RNA samples were first assessed for quality using the Agilent Bioanalyzer (DV200 metric). One hundred ng of RNA were used as the input for first strand cDNA synthesis using Superscript III reverse transcriptase and Illumina's TruSeq RNA Access Sample Prep Kit. Synthesis of the second strand of cDNA was followed by indexed adapter ligation with UMI (unique molecular index) adaptors. Subsequent PCR amplification enriched for adapted fragments. Amplified libraries were quantified, normalized, pooled, and hybridized with exome targeting oligos. Following hybridization, bead clean-up, elution and PCR was performed to prepare library pools for sequencing on Illumina flowcell lanes. Transcriptomes were sequenced to a coverage of at least 50 million reads in pairs.
Raw fastq files for fibroblast and keratinocyte control lines were downloaded from SRA using R Bioconductor package SRAdb (Mayakonda et al. (2018) supra; Zhu et al. (2013) BMC Bioinformatics 14 (1): 1-4) using accession codes SRP126422 (4 replicates from control samples ‘NN’) and SRP131347 (6 replicates with condition: control and genotype: control). These fastq files, along with those for the mkl1 and waga cell lines, were aligned using STAR version 2.7.3a (Dobin et al. (2013) Bioinformatics 29 (1): 15-21), using index genome reference file downloaded from ftp.ebi.ac.uk/pub/databases/gencode/Gencode_human/release_19/GRCh37.p13.genome.fa.gz, transcript annotation file downloaded from data.broadinstitute.org/snowman/hg19/star/gencode.v19.annotation.gtf, and with the following options: --twopassMode Basic, --outSAMstrandField intronMotif, --alignIntronMax 1000000, --alignMatesGapMax 1000000, --sjdbScore 2, --outSAMtype BAM Unsorted, --outSAMattributes NH HI NM MD AS XS, --outFilterType BySJout, --outSAMunmapped Within, --genomeLoad NoSharedMemory, --outFilterScoreMinOverLread 0, --outFilterMatchNminOverLread 0, --outFilterMismatchNmax 999, and outFilterMultimapNmax 20. Duplicates were marked with picard MarkDuplicates version 2.22.0-SNAPSHOT.
RNA-sequencing bam files for MCC tumor and cell line samples were downloaded from the Broad Genomics Firecloud/Terra platform using the Google Cloud Storage command line tool gsutil version 4.5 (github.com/GoogleCloudPlatform/gsutil/).
Gene counts were obtained from bam files using featureCounts version 2.0.0 (doi.org/10.1093/bioinformatics/btt656). Very lowly expressed genes with average count across samples less than 1 were excluded from analysis. Between-sample distance metrics were computed using the Euclidean distance on the vectors of variance-stabilized counts obtained from the vst function in the DESeq2 R Bioconductor package ([…]; Love et al. (2014) Genome Biology 15 (12): 550).
Differential expression analysis was carried out between (1) viral positive and viral negative samples (adjusting for cell line or tumor as a covariate), (2) cell line and tumor samples (adjusting for viral status as a covariate), and (3) IFNγ plus and minus samples (adjusting for viral status as a covariate) using the negative binomial GLM Wald test of DESeq2, where significance was assessed using the p-values adjusted for multiple comparisons under default settings. To account for potential global gene expression differences among sample groups, RUVg (Risso et al. (2014) […] 32 (9): 896-902) was used to estimate latent factors of unwanted variation from the list of housekeeping genes downloaded from www.tau.ac.il/˜elieis/HKG/HK_genes.txt. […]

[1] = 11 MCC cell lines, baseline vs IFNγ, negative LFC = upregulation in IFNγ-treated

Substance: IFN-y: type II interferon, recombinant human, used to treat MCC cells
- class I genes mRNA expression (RNA-seq) (10 of 11 MCC lines, baseline vs treated): markedly upregulated
- log2FoldChange ACSL5 (ENSG00000197142.6) [1]: −5.831
- log2FoldChange ADAR (ENSG00000160710.11) [1]: −1.068
- log2FoldChange ADGRF3 (ENSG00000173567.10) [1]: −0.853
- log2FoldChange ATP2C1 (ENSG00000017260.15) [1]: −0.5502
- log2FoldChange ATP10D (ENSG00000145246.9) [1]: −2.417
- log2FoldChange AZIN2 (ENSG00000142920.12) [1]: −1.224
- log2FoldChange BATF2 (ENSG00000168062.5) [1]: −7.362
- log2FoldChange BCL2L14 (ENSG00000121380.8) [1]: −5.59
- log2FoldChange BCL6 (ENSG00000113916.13) [1]: −2.953
- log2FoldChange BTN2A1 (ENSG00000112763.11) [1]: −0.9873
- log2FoldChange BTN2A3P (ENSG00000124549.10) [1]: −4.459
- log2FoldChange BTN3A1 (ENSG00000026950.12) [1]: −6.582
- log2FoldChange BTN3A2 (ENSG00000186470.9) [1]: −6.089
- log2FoldChange BTN3A3 (ENSG00000111801.11) [1]: −6.93
- log2FoldChange C1QB (ENSG00000173369.11) [1]: −3.233
- log2FoldChange C2 (ENSG00000166278.10) [1]: −4.096
- log2FoldChange C4A (ENSG00000244731.3) [1]: −1.245
- log2FoldChange C4B (ENSG00000224389.4) [1]: −2.248
- log2FoldChange C5orf56 (ENSG00000197536.6) [1]: −3.71
- log2FoldChange CARD16 (ENSG00000204397.3) [1]: −6.289
- log2FoldChange CASC6 (ENSG00000224944.1) [1]: −3.263
- log2FoldChange CASP1 (ENSG00000137752.18) [1]: −7.907
- log2FoldChange CASP4 (ENSG00000196954.8) [1]: −4.024
- log2FoldChange CASP7 (ENSG00000165806.15) [1]: −1.833
- log2FoldChange CCDC73 (ENSG00000186714.8) [1]: −2.84
- log2FoldChange CCND1 (ENSG00000110092.3) [1]: −5.698
- log2FoldChange CD74 (ENSG00000019582.10) [1]: −8.494
- log2FoldChange CD274 (ENSG00000120217.9) [1]: −6.119
- log2FoldChange CDC20 (ENSG00000117399.9) [1]: 0.6763
- log2FoldChange CFB (ENSG00000243649.4) [1]: −7.333
- log2FoldChange CIR1 (ENSG00000138433.11) [1]: −0.5344
- log2FoldChange CLVS1 (ENSG00000177182.6) [1]: −3.934
- log2FoldChange CMPK2 (ENSG00000134326.7) [1]: −2.83
- log2FoldChange CSF1 (ENSG00000184371.9) [1]: −3.741
- log2FoldChange CTSO (ENSG00000256043.2) [1]: −3.005
- log2FoldChange CXCL9 (ENSG00000138755.5) [1]: −11.74
- log2FoldChange CXCL10 (ENSG00000169245.4) [1]: −5.89
- log2FoldChange CXCL11 (ENSG00000169248.8) [1]: −4.672
- log2FoldChange DDO (ENSG00000203797.5) [1]: −4.692
- log2FoldChange DDX58 (ENSG00000107201.5) [1]: −2.939
- log2FoldChange DDX60 (ENSG00000137628.12) [1]: −7.298
- log2FoldChange DDX60L (ENSG00000181381.9) [1]: −3.461
- log2FoldChange DNPEP (ENSG00000123992.14) [1]: −1.703
- log2FoldChange DTX3L (ENSG00000163840.5) [1]: −4.603
- log2FoldChange EIF2AK2 (ENSG00000055332.12) [1]: −1.367
- log2FoldChange ENSG00000121848.9 (symbol NA) [1]: −0.3499
- log2FoldChange ENSG00000197146.2 (symbol NA) [1]: −1.6
- log2FoldChange ENSG00000202533.1 (symbol NA) [1]: −3.684
- log2FoldChange ENSG00000213500.3 (symbol NA) [1]: −2.007
- log2FoldChange ENSG00000224666.2 (symbol NA) [1]: −5.276
- log2FoldChange ENSG00000224789.1 (symbol NA) [1]: −2.338
- log2FoldChange ENSG00000225931.3 (symbol NA) [1]: −4.205
- log2FoldChange ENSG00000229023.1 (symbol NA) [1]: −4.669
- log2FoldChange ENSG00000229677.1 (symbol NA) [1]: −2.162
- log2FoldChange ENSG00000230812.1 (symbol NA) [1]: −5.173
- log2FoldChange ENSG00000231280.1 (symbol NA) [1]: −5.122
- log2FoldChange ENSG00000232709.1 (symbol NA) [1]: −3.863
- log2FoldChange ENSG00000233892.1 (symbol NA) [1]: −1.246
- log2FoldChange ENSG00000234290.2 (symbol NA) [1]: −2.28
- log2FoldChange ENSG00000238000.1 (symbol NA) [1]: −1.895
- log2FoldChange ENSG00000238160.1 (symbol NA) [1]: −3.274
- log2FoldChange ENSG00000238991.1 (symbol NA) [1]: −3.733
- log2FoldChange ENSG00000245025.2 (symbol NA) [1]: −3.838
- log2FoldChange ENSG00000248693.1 (symbol NA) [1]: −3.648
- log2FoldChange ENSG00000252206.1 (symbol NA) [1]: −2.445
- log2FoldChange ENSG00000260336.1 (symbol NA) [1]: −2.736
- log2FoldChange ENSG00000261618.1 (symbol NA) [1]: −6.277
- log2FoldChange ENSG00000271581.1 (symbol NA) [1]: −4.138
- log2FoldChange ENSG00000271646.1 (symbol NA) [1]: −1.853
- log2FoldChange ENSG00000272941.1 (symbol NA) [1]: −7.747
- log2FoldChange ERAP1 (ENSG00000164307.8) [1]: −2.331
- log2FoldChange ERAP2 (ENSG00000164308.12) [1]: −3.931
- log2FoldChange ETV7 (ENSG00000010030.9) [1]: −5.205
- log2FoldChange FAM110C (ENSG00000184731.5) [1]: −3.465
- log2FoldChange FAM111A (ENSG00000166801.11) [1]: −2.679
- log2FoldChange FAM186B (ENSG00000135436.4) [1]: −1.748
- log2FoldChange FAS (ENSG00000026103.15) [1]: −2.315
